# Source: publication PMC11201061, “Mechanistic Study of Antimicrobial Effectiveness of Cyclic Amphipathic Peptide [R4W4] against Methicillin-Resistant Staphylococcus aureus Clinical Isolates” (Antibiotics, 2024)
# Where a SMILES comes first, the peptide text is derived from it.
# What was measured:
# [1] = in vitro; settings: human, 25% human serum
# Description: (§1) Fresh human serum (4 mL) was centrifuged at 12,500× g for 15 min at 4 °C to remove the lipids. A 25% human serum sample was prepared by adding 375 µL of the human serum supernatant to 1125 µL of RPMI buffer. […] The test sample was incubated in a water bath at 37 °C until a predetermined time interval (0, 1, 2, 4, 6, 8.5, 12, and 20 h). At the time intervals, a 150 µL aliquot test sample was added to a 300 µL cocktail solution [ethanol/formic acid (98:2 v/v) mixture] to cease the reaction. The test samples of aliquots were stored on dry ice for 20 min and then centrifuged at 17,200× g for 20 min. For LC-MS analysis, 150 µL supernatant aliquot test samples were stored at −20 °C [54].
# (§2) A 20 μL aliquot of each sample was analyzed using an Xterra MS C18 column (3.9 × 150 mm, 5 μm, Waters, MA, USA), Nexera XR, and Prominence Shimadzu LC-20AD XR systems (Shimadzu Corporation, Kyoto, Japan) coupled with Shimadzu LC-MS-2020 mass spectrometer (Shimadzu, OR, USA). A two-component LC system consisted of mobile phase A (0.1% formic acid and 10% acetonitrile in water) and mobile phase B (0.1% formic acid and 100% acetonitrile). The flow rate was set at 1.0 mL/min. The Xterra MS C18 column at 40 °C was allowed to equilibrate with 95% mobile phase A. Peptides were loaded to the column and washed for 5 min with 95% mobile Phase A. Analytes were separated using a binary gradient of 0–95% mobile Phase B for 25 min. […] MS was conducted in multiple reaction monitoring and positive electrospray ionization mode. Fourteen concentrations of [R4W4] prepared by two-fold dilution of 200 μg/mL to 0.39 μg/mL were used to prepare calibration curves. The calibration curves were plotted using weighted (1/×2) least-squares linear regression analysis of peptide mass spectra area under the curve (AUC) versus concentration.
# [2] = 25% fresh human serum in RPMI buffer, 37 °C, peptide 100 µg/mL, 20 h; LC-MS; three independent experiments
# Description: as §1, §2
# [3] = test system: E. coli 25922; test: Checkered board synergy assay with gentamicin; type: cell-based, Escherichia coli
# Description: An amount of 100 µL of [R4W4] peptide test solution at a final concentration of 512 µg/mL was added to each well A-G column 1 in plate A using a multi-channel pipette. A 50 µL MH Broth was added to micro-plate well A-G columns 2–9. Using a multi-channel pipette, a two-fold serial dilution was performed by removing 50 µL solution from column 1 and was added to column 2 with thorough mixing. The micro-pipette was discarded after each transfer. The last portion after column 9 was discarded. In another microplate, 100 µL MHB was added to well B-G columns 1–11 using a multi-channel pipette. A 200 µL gentamicin test solution 512 µg/mL was added to row A, columns 1–11. A two-fold serial dilution was performed by removing 100 µL from rows A to B. The last portion was discarded. Using eight multi-channel pipettes, 50 µL of gentamicin test solution was transferred in the ordinate column A-G row 1 to the first microplate. The plate was incubated at 37 °C for 18–24 h. The fractional inhibitory concentration (FIC) of the antibacterial agents and the fractional inhibitory concentration index (FICI) of the two antibacterial agents were determined to evaluate the synergistic interaction. The FICI was interpreted as follows: FICI ≤ 0.5, synergy; 0.5 < FICI ≤ 1, partial synergy; 1 ≤ FICI < 4, additive effect or indifference; 4 ≤ FICI antagonism and calculated from the mean values from multiple experiments.
structure (smiles),measurement,setting,value
N=C(N)NCCC[C@@H]1NC(=O)[C@H](CCCNC(=N)N)NC(=O)[C@H](CCCNC(=N)N)NC(=O)[C@H](Cc2c[nH]c3ccccc23)NC(=O)[C@H](Cc2c[nH]c3ccccc23)NC(=O)[C@H](Cc2c[nH]c3ccccc23)NC(=O)[C@H](Cc2c[nH]c3ccccc23)NC(=O)[C@H](CCCNC(=N)N)NC1=O [[R4W4]] (cyclo(RRRRWWWW)),half-life at 100 µg/mL,[1],> 20 h
same,"remaining at 1 h, 100 µg/mL",[1],~99%
same,"remaining at 2 h, 100 µg/mL",[1],93%
same,"remaining at 6 h, 100 µg/mL",[1],80%
same,"remaining at 12 h, 100 µg/mL",[1],77%
same,"remaining at 20 h, 100 µg/mL",[1],76%
same,remaining [R4W4] (intact peptide),[2],over 70%
same,MIC(A+B) ([R4W4] in combination with gentamicin),"[3]; E. coli 25922, checkered board",1.5 mg/L
same,MICA ([R4W4] alone),"[3]; E. coli 25922, checkered board, 37 °C, 18–24 h, mean values from multiple experiments",32 µg/mL
same,FICA,"[3]; E. coli 25922, fractional inhibitory concentration of [R4W4]",0.05
same,reduction in MIC value in combination,"[3]; E. coli, [R4W4] + gentamicin combination versus alone",2 fold
